This note sets out measurements from US9115137B2, “2,3,4,5-tetrahydro-1H-pyrido[4,3-B]indole compounds and methods of use thereof” (priority 2008, dated 2015).

The structures appear in SMILES notation.

For test [1], the target named is T1, human recombinant histamine H1 receptor (Homo sapiens, UniProt P35367).
T1 construct: expressed in transfected cells; host or cells: CHO cells
The test can be described thus: Histamine H1 radioligand binding ([3H]Pyrilamine). The settings on record: compound at 1 μM; CHO cells; read-out: Histamine Binding (1 μM) H1, percent inhibition of specific binding. The method, then:
To evaluate in radioligand binding assays the activity of compounds of the invention, human recombinant histamine H1 receptor expressed in Chinese hamster ovary (CHO) cells (De Backer, M. D. et al., Biochem. Biophys. Res. Comm. 197(3):1601, 1993) in a modified Tris-HCl buffer (50 mM Tris-HCl, pH 7.4, 2 mM MgCl2, 100 mM NaCl, 250 mM Sucrose) was used. Compounds of the invention were incubated with 1.2 nM [^3H]Pyrilamine for 180 minutes at 25° C. Non-specific binding was estimated in the presence of 1 μM pyrilamine. Receptor proteins were filtered and washed, the filters were then counted to determine [^3H]Pyrilamine specifically bound. Compounds were screened at 1 μM, using 1% DMSO as vehicle. Biochemical assay results are presented as the percent inhibition of specific binding in Table 5.

Test [2] has as its target T2, human recombinant histamine H2 receptor (Homo sapiens, UniProt P25021).
T2 construct: expressed in transfected cells; host or cells: CHO-K1 cells
Nature of the test: Histamine H2 radioligand binding ([125I]aminopotentidine). The note with it: compound at 1 μM; CHO K1 cells; read-out: Histamine Binding (1 μM) H2, percent inhibition of specific binding. As for the experimental part: To evaluate in radioligand binding assays the activity of compounds of the invention, human recombinant histamine H2 receptor expressed in Chinese hamster ovary (CHO) K1 cells (Ruat, M., Proc. Natl. Acad. Sci. USA. 87(5):1658, 1990) in a 50 mM Phosphate buffer, pH 7.4 was used. Compounds of the invention were incubated with 0.1 nM [^125I]aminopotentidine for 120 minutes at 25° C. Non-specific binding was estimated in the presence of 3 μM Tiotidine. Receptor proteins were filtered and washed, the filters were then counted to determine [^125I]Aminopotentidine specifically bound. Compounds were screened at 1 μM, using 1% DMSO as vehicle. Biochemical assay results are presented as the percent inhibition of specific binding in Table 5.

Test [3] has as its target T3, human recombinant adrenergic α1D receptor (Homo sapiens, UniProt P25100).
T3 construct: expressed in transfected cells; host or cells: HEK-293 cells
T3 sequence (P25100 1-572): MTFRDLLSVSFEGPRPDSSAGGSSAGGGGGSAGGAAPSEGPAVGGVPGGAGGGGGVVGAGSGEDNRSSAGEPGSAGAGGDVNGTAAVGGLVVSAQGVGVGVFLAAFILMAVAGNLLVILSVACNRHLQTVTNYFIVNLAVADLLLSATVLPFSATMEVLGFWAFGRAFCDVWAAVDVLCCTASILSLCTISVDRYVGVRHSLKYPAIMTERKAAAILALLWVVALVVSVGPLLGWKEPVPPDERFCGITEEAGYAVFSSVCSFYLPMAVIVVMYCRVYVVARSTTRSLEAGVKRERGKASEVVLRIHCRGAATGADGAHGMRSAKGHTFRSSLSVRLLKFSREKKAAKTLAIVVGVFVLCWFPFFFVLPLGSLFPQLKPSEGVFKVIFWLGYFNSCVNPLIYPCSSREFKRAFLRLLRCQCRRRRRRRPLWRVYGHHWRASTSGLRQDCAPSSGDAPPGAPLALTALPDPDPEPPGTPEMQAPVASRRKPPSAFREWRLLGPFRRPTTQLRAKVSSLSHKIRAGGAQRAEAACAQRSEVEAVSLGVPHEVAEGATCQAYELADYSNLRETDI
Nature of the test: Adrenergic α1D radioligand binding ([3H]Prozosin). The note with it: compound at 1 μM; HEK-293 cells; read-out: Adrenergic (1 μM) α1D, percent inhibition of specific binding. The method, then: To evaluate in radioligand binding assays the activity of compounds of the invention, human recombinant adrenergic α1D receptor expressed in human embryonic kidney (HEK-293) cells (Kenny, B. A. et al. Br. J. Pharmacol. 115(6):981, 1995) in a 50 mM Tris-HCl buffer, pH 7.4, was used. Compounds of invention were incubated with 0.6 nM [^3H]Prozosin for 60 minutes at 25° C. Non-specific binding was estimated in the presence of 10 μM phentolamine. Receptor proteins were filtered and washed, the filters were then counted to determine [^3H]Prozosin specifically bound. Compounds were screened at 1 μM or lower, using 1% DMSO as vehicle. Biochemical assay results are presented as the percent inhibition of specific binding in Table 6.

The target of test [4] is T4, human recombinant serotonin (5-Hydroxytryptamine) 5-HT2C receptor (Homo sapiens, UniProt P28335).
T4 construct: expressed in transfected cells; host or cells: CHO-K1 cells
T4 sequence (P28335 33-458): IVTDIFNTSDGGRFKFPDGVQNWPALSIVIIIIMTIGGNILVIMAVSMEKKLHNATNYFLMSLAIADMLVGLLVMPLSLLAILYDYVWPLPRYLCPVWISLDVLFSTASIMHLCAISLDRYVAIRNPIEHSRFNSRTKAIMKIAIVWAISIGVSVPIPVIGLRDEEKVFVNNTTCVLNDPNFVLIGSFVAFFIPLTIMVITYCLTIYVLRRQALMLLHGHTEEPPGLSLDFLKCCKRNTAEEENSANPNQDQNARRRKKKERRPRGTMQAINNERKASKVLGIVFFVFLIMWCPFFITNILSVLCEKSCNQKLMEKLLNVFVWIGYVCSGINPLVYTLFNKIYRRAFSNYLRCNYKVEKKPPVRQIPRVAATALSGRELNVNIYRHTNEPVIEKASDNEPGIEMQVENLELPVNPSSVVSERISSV
The test can be described thus: Serotonin 5-HT2C radioligand binding ([3H]Mesulergine). The settings on record: compound at 1 μM; CHO-K1 cells; read-out: Serotonin (1 μM) 5-HT2C, percent inhibition of specific binding. The method, then: To evaluate in radioligand binding assays the activity of compounds of the invention, human recombinant serotonin (5-Hydroxytryptamine) 5-HT2C receptor expressed in Chinese hamster ovary (CHO-K1) cells (Wolf, W. A. and Schutz, J. S., J. Neurochem. 69:1449, 1997) in a modified Tris-HCl buffer (50 mM Tris-HCl, pH 7.4, 0.1% Ascorbic Acid, 10 μM Pargyline) was used. Compounds of the invention were incubated with 1 nM [^3H]Mesulergine for 60 minutes at 25° C. Non-specific binding was estimated in the presence of 1 μM Mianserin. Receptor proteins were filtered and washed, the filters were then counted to determine [^3H]Mesulergine specifically bound. Compounds were screened at 1 μM or lower, using 1% DMSO as vehicle. Biochemical assay results are presented as the percent inhibition of specific binding in Table 7.

T1 sequence (P35367 whole entry): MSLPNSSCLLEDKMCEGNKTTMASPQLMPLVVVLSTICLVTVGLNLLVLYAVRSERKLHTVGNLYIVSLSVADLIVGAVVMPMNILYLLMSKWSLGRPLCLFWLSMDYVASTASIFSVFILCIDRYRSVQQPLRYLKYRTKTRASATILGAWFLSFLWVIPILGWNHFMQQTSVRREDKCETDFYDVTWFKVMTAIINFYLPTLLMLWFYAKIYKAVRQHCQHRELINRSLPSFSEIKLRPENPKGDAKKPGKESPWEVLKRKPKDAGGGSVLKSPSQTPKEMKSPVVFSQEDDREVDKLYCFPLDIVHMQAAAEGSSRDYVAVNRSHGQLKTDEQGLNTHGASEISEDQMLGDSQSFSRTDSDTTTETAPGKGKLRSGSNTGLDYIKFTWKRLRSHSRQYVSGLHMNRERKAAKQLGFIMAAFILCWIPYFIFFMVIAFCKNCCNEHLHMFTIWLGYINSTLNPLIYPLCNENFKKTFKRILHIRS
T2 sequence (P25021 whole entry): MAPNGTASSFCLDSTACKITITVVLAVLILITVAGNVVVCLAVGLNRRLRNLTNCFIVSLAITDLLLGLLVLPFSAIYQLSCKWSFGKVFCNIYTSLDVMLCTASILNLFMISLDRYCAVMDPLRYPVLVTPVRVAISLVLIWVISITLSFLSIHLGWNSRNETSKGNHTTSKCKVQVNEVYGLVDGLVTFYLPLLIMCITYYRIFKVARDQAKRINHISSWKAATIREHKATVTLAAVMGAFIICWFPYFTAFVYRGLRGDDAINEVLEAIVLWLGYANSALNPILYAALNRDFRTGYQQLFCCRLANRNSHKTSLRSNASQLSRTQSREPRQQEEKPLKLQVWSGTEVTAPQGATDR

As to `Cc1ccc2c(c1)c1c(n2CCC#N)CCN(C)C1` [CD92, 3-(2,8-dimethyl-3,4-dihydro-1H-pyrido[4,3-b]indol-5(2H)-yl)propanenitrile], the inhibition at 1 µM in test [1] is 99%; in test [2], 8%; in test [3], 78%; in test [4], 61%.

On to `CCOC(=O)CCn1c2c(c3cc(Cl)ccc31)CN(C)CC2` [CD17, ethyl 3-(8-chloro-1,2,3,4-tetrahydro-2-methylpyrido[4,3-b]indol-5-yl)propanoate], for which the inhibition at 1 µM in test [1] amounted to 100%; in test [2], 46%; in test [3], 70%; in test [4], 96%.

`Cc1ccc2c(c1)c1c(n2CCC(N)=O)CCN(C)C1` [Compound 46, 3-(1,2,3,4-tetrahydro-2,8-dimethylpyrido[4,3-b]indol-5-yl)propanamide]: the inhibition at 1 µM in test [1] is 52%; in test [2], -5%; in test [3] it was 7%; in test [4], 65%.

`Cc1ccc2c(c1)c1c(n2CCN)CCN(C)C1` [CD62, 2-(1,2,3,4-tetrahydro-2,8-dimethylpyrido[4,3-b]indol-5-yl)ethanamine]: the inhibition at 1 µM in test [1] is 44%; in test [2] it was 65%; in test [3] it was 34%; in test [4] it was 28%.

`CC(C)OC(=O)CCn1c2c(c3cc(Cl)ccc31)CN(C)CC2` [Compound 17, isopropyl 3-(8-chloro-1,2,3,4-tetrahydro-2-methylpyrido[4,3-b]indol-5-yl)propanoate]: the inhibition at 1 µM in test [1] came out at 96%; in test [2], 64%; in test [3], 73%; in test [4] it was 91%.

With `Cc1ccc2c(c1)c1c(n2CCC(=O)NC(C)C)CCN(C)C1` [Compound 53], the inhibition at 1 µM in test [1] worked out at 51%; in test [2] it was 12%; in test [3] it was 62%; in test [4], 51%.

In the case of `Cc1ccc2c(c1)c1c(n2CCNC(=O)OCC(Cl)(Cl)Cl)CCN(C)C1` [Compound 8, 2,2,2-trichloroethyl 2-(1,2,3,4-tetrahydro-2,8-dimethylpyrido[4,3-b]indol-5-yl)ethylcarbamate], the inhibition at 1 µM in test [1] is 101%; in test [2] it was 74%; in test [3], 72%; in test [4], 99%.

With `Cc1ccc2c(c1)c1c(n2CCC(=O)NCc2ccccc2)CCN(C)C1` [Compound 59, N-benzyl-3-(1,2,3,4-tetrahydro-2,8-dimethylpyrido[4,3-b]indol-5-yl)propanamide], the inhibition at 1 µM in test [1] was found to be 60%; in test [2], 5%; in test [3], 56%; in test [4], 72%.

Consider `Cc1ccc2c(c1)c1c(n2CCC(=O)Nc2ccccc2)CCN(C)C1` [Compound 29], for which the inhibition at 1 µM in test [1] amounted to 84%; in test [2], 34%; in test [3] it was 74%; in test [4] it was 73%.

Take `CN1CCc2c(c3cc(Cl)ccc3n2CCC(N)=O)C1` [Compound 67, 3-(8-chloro-1,2,3,4-tetrahydro-2-methylpyrido[4,3-b]indol-5-yl)propanamide]: the inhibition at 1 µM in test [1] is 70%; in test [2] it was -6%; in test [3], 32%; in test [4], 65%.

Take `Cc1ccc2c(c1)c1c(n2C2CCCCC2O)CCN(C)C1` (stereo not drawn) [Compound 73, 2-(1,2,3,4-tetrahydro-2,8-dimethylpyrido[4,3-b]indol-5-yl)cyclohexanol]: the inhibition at 1 µM in test [1] stood at 2%; in test [2], 8%; in test [3], 6%; in test [4], 52%.

Regarding `CCNC(=O)CCn1c2c(c3cc(C)ccc31)CN(C)CC2` [Compound 2, N-ethyl-3-(1,2,3,4-tetrahydro-2,8-dimethylpyrido[4,3-b]indol-5-yl)propanamide], the inhibition at 1 µM in test [1] was 52%; in test [2], 5%; in test [3], 17%; in test [4] it was -5%.

Turning to `CN1CCc2c(c3cc(Cl)ccc3n2CCC(=O)OCc2ccccc2)C1` [Compound 19, benzyl 3-(8-chloro-1,2,3,4-tetrahydro-2-methylpyrido[4,3-b]indol-5-yl)propanoate], the inhibition at 1 µM in test [1] was 101%; in test [2], 81%; in test [3], 83%; in test [4] it was 96%.

As for `CN1CCc2c(c3cc(Cl)ccc3n2CCCO)C1` [CD87, 3-(8-chloro-2-methyl-3,4-dihydro-1H-pyrido[4,3-b]indol-5(2H)-yl)propan-1-ol], the inhibition at 1 µM came to 97% in test [1], 18% in test [2], 75% in test [3] and 79% in test [4].

`Cc1ccc2c(c1)c1c(n2CCNC(=O)C2CCNCC2)CCN(C)C1` [Compound 65, N-(2-(1,2,3,4-tetrahydro-2,8-dimethylpyrido[4,3-b]indol-5-yl)ethyl)piperidine-4-carboxamide]: the inhibition at 1 µM was 34% in test [1], -7% in test [2], 11% in test [3] and 24% in test [4].

Turning to `Cc1ccc2c(c1)c1c(n2CCNC(=O)C2CCCNC2)CCN(C)C1` (stereo not drawn) [Compound 9, N-(2-(1,2,3,4-tetrahydro-2,8-dimethylpyrido[4,3-b]indol-5-yl)ethyl)piperidine-3-carboxamide], the results for the inhibition at 1 µM in test [2], in test [3] and in test [4] were -44%, 11% and 29%, respectively.
